In patent US20240317683A1, “METHODS OF TREATING MOOD DISORDERS” (priority 2020, published 2024):
Structures can show the parent of a compound that is named as a salt.

Assays:
human 5-HT2C receptor = human 5-HT2C receptor (Homo sapiens (Human), UniProt P28335); test: cell-based; type: cell-based; settings: Ca2+ flux
CYP2D6 = CYP2D6 (Homo sapiens (Human), UniProt P10635); test: CYP inhibition in human liver microsomes, CYP2D6; type: in vitro ADME; settings: for inhibition at 10 min, 10 µM: both sexes, human, pooled human liver microsomes, pH 7.4, probe dextromethorphan (5 μM), HLM, dextromethorphan substrate, read-out: CYP 2D6 % Inhibition at 10 μM
CYP2C19 = CYP2C19 (Homo sapiens (Human), UniProt P33261); test: CYP inhibition in human liver microsomes, CYP2C19; type: in vitro ADME; settings: for inhibition at 10 min, 10 µM: both sexes, human, pooled human liver microsomes, pH 7.4, probe (S)-mephenytoin (30 μM), HLM, (S)-mephenytoin substrate, read-out: CYP 2C19 % Inhibition at 10 μM
Method: (§1) HLM Incubations. Pooled HLM from adult male and female donors (Corning 452117) were used. Microsomal incubations were carried out in multi-well plates. Liver microsomal incubation aliquots contained 1) PBS (100 mM, pH 7.4), MgCl2 (3.3 mM), and NADPH (1 mM); 2) liver microsomal protein (0.2 mg/mL); 3) the reference CYP substrates: phenacetin for CYP1A2 (10 μM), diclofenac for CYP2C9 (5 μM), (S)-mephenytoin for CYP2C19 (30 μM), dextromethorphan for CYP2D6 (5 μM), and midazolam for CYP3A4 (2 μM); and 4) test compounds (10 μM), control inhibitors (3 μM α-naphthoflavone for CYP1A2, 3 μM sulfaphenazole for CYP2C9, 1 μM (+)-N-3-benzylnirvanol for 2C19, 3 μM quinidine for CYP2D6, or 3 μM ketoconazole for CYP3A4), or solvent (for uninhibited condition). Incubations were carried out at 37° C. with constant shaking for 10 minutes.
(§2) Sample Analysis. […] Percent inhibition by test compounds or control inhibitors was calculated by comparing the metabolite formation in the presence of the inhibitor compared to the metabolite formation in the absence of the inhibitor.

CYP1A2 = CYP1A2 (Homo sapiens (Human), UniProt P05177); test: CYP inhibition in human liver microsomes, CYP1A2; type: in vitro ADME; settings: for inhibition at 10 min, 10 µM: both sexes, human, pooled human liver microsomes, pH 7.4, probe phenacetin (10 μM), HLM, phenacetin substrate, read-out: CYP 1A2 % Inhibition at 10 μM
Method: as §1, §2

rat synaptosomes = test: Synaptosome 5-HT release assay; type: biochemical, Sprague-Dawley rats; settings: for EC50: [3H]5-HT
Method: Synaptosome 5-HT Release Assay. Synaptosome release assays were conducted according to modifications of previously described procedures (Partilla et al. (2016). Interrogating the Activity of Ligands at Monoamine Transporters in Rat Brain Synaptosomes. In Neurotransmitter Transporters (pp. 41-52). Springer.). Briefly, synaptosomes were prepared from rat brains. Male Sprague-Dawley rats were rendered unconscious with CO2 and their brains were immediately removed. The cerebella were discarded and the whole brains (minus striatum) were placed in ice-cold 0.32 M sucrose (10 mL per brain) and gently homogenized by hand. The homogenate of each brain was centrifuged at 1,000× g at 4° C. for 10 mins and the resulting supernatant was diluted with ice-cold 0.32 M sucrose to a total volume of 10 mL to provide the synaptosome solution. Synaptosomes were then preloaded with 5 nM [^3H] 5-HT in the presence of selective uptake inhibitors of DAT (50 nM GBR12935), NET (100 nM nomifensine), and VMAT2 (1 μM reserpine) in Krebs phosphate buffer (KPB). The incubations were allowed to reach equilibrium for 2 h at 25° C. For the release reactions, 425 μL of preloaded synaptosomes were added to test tubes containing 75 μL of test drugs diluted in KPB containing 1 mg/mL BSA. After 10 mins, the release reaction was stopped using a cell harvester by rapid vacuum filtration over GF/B filter paper presoaked in wash buffer (10 mM Tris-HCl, pH 7.4, 150 mM NaCl) and the filters were washed with additional wash buffer. Filters were dried for 1 h at 60° C. and retained radioactivity was quantified using a MicroBeta 2 liquid scintillation counter. The amount of retained radioactivity was inversely proportional to the extent of release.

[1] = Pharmacokinetics in rats, plasma; type: in vivo; settings: male, Sprague Dawley, rat plasma, SC
Method: (§3) Animals. Male Sprague Dawley rats, aged 8-12 weeks, were used in these studies. Four rats were housed in each cage. Temperature and humidity were maintained at 22±3° C. and 30-70%, respectively, and illumination was controlled to give a 12 h light and 12 h dark cycle. Temperature and humidity were recorded by an auto-controlled data logger system. All animals were provided laboratory rodent diet and were fasted for 4 h pre-dose and 2 h post-dose. Reverse osmosis water treated with ultraviolet light was provided ad libitum. Animals were randomly assigned to treatment groups.
(§4) Drugs. Compounds 4 and 5 were prepared as described above. Compound 6 was commercially obtained. Test compounds were used as the hydrogen fumarate (6) or hydrochloride (4 and 5) salts and were dissolved in a vehicle consisting of normal saline. They were then administered subcutaneously (SC) at a dose of 1 or 10 mg/kg (calculated based on the free base) and at a volume of 5 mL/kg body weight.
(§5) Sample Collection and Bioanalysis. Blood samples (approximately 120 μL) were collected under light isoflurane anesthesia (Surgivet®) from the retro orbital plexus at 0.08, 0.25, 0.5, 1, 2, 4, 8, and 24 h (4 animals per time point). Immediately after blood collection, plasma was harvested by centrifugation at 4,000 rpm for 10 min at 4° C. and samples were stored at −70±10° C. until bioanalysis. Following blood collection, animals were immediately sacrificed, the abdominal vena-cava was cut open, and the whole body was perfused from the heart using 10 mL of normal saline, and brain samples were collected from all animals. After isolation, brain samples were rinsed three times in ice-cold normal saline (for 5-10 seconds/rinse using ˜5-10 mL normal saline in disposable petri dish for each rinse) and dried on blotting paper. Brain samples were homogenized using ice-cold phosphate-buffered saline (pH 7.4). Total homogenate volume was three times the tissue weight. All homogenates were stored at −70±10° C. until bioanalysis. For bioanalysis, 25 μL aliquots of plasma/brain study samples or spiked plasma/brain calibration standards were added to individual pre-labeled micro-centrifuge tubes followed by 100 μL of an internal standard solution (glipizide, 500 ng/ml in acetonitrile) except for blanks, where 100 μL of acetonitrile was added. Samples were vortexed for 5 minutes and then centrifuged for 10 minutes at 4,000 rpm at 4° C. Following centrifugation, 100 μL of each clear supernatant was transferred to a 96 well plate and analyzed with a fit-for-purpose LC-MS/MS method, with authentic samples of each analyte used for calibration and identification.
(§6) Data Analysis. Pharmacokinetic parameters were estimated using the non-compartmental analysis tool of Phoenix® WinNonlin software (Ver 8.0).

[2] = Pharmacokinetics in rats, brain; type: in vivo, Sprague Dawley rats; settings: rat brain, SC; for Cmax / Tmax / half-life: male, Sprague Dawley
Method: as §3, §4, §5, §6

Sequence of CYP1A2 (P05177 whole entry, looked up): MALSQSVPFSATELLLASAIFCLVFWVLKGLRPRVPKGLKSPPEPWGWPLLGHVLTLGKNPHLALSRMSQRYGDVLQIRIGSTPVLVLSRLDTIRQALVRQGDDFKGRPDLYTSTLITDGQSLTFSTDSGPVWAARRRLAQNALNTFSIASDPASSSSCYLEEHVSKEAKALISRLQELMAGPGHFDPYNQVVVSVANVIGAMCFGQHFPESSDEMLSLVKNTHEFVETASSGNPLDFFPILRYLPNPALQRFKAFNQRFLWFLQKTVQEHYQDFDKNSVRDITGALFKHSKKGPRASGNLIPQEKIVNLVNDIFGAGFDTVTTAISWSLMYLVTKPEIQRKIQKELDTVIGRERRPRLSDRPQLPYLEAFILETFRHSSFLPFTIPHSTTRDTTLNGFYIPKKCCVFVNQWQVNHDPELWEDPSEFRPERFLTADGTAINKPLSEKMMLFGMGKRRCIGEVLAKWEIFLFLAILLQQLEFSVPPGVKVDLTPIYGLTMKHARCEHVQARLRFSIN
Sequence of CYP2C19 (P33261 whole entry, looked up): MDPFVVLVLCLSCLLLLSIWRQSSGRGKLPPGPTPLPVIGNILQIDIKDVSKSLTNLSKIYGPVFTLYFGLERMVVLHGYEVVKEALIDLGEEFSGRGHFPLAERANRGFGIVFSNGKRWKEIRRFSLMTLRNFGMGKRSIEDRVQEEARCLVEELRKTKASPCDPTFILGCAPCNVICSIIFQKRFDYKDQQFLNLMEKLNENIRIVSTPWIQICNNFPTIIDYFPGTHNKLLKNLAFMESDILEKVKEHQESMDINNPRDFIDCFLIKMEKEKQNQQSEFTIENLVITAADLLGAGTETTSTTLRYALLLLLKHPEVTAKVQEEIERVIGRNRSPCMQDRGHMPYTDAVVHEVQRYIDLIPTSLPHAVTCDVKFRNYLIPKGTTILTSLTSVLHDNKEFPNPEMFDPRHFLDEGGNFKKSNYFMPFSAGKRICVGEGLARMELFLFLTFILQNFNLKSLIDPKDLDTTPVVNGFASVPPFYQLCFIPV
Sequence of human 5-HT2C receptor (P28335 33-458 limits assumed): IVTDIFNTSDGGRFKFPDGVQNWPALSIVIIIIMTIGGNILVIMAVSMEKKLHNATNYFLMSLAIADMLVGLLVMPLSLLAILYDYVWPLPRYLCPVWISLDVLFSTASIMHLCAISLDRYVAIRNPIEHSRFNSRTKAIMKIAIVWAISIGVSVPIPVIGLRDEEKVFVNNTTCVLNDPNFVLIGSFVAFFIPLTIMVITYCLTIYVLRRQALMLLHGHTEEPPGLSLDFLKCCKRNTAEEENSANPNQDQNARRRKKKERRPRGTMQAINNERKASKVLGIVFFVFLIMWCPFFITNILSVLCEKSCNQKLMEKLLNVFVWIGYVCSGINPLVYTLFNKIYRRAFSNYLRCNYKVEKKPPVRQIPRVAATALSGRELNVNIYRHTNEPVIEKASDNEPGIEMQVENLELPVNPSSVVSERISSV
Sequence of CYP2D6 (P10635 whole entry, looked up): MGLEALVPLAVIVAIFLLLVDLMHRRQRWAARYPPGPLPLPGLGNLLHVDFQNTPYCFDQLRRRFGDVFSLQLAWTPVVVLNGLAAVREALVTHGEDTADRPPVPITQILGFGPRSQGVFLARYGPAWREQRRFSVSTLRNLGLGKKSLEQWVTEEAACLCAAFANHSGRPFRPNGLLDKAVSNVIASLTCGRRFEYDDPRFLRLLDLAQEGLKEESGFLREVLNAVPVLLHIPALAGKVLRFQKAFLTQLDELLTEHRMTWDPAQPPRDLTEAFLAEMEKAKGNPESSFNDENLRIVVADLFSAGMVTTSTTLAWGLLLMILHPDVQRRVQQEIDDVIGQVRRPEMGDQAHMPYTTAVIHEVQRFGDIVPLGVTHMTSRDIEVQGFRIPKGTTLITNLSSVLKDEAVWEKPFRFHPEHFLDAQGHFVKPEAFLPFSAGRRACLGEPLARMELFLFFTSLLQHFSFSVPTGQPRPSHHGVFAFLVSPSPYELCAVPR

Compound | 5-HT2C % Act @ Max Dose (human 5-HT2C receptor) [%] | % Release @ Max Dose (10 μM) (rat synaptosomes) [%] | EC50 (rat synaptosomes) [µM] | IC50 (CYP2D6) [µM] | IC50 (CYP2C19) [µM] | IC50 (CYP1A2) [µM] | AUC(0-t) ([1]; 10 mg/kg) [ng·h/mL] | Cmax ([1]; 10 mg/kg) [ng/mL] | Tmax ([1]; 10 mg/kg) [min] | Cmax ([2]; 10 mg/kg) [ng/g] | Tmax ([2]; 10 mg/kg) [min] | half-life ([2]; 10 mg/kg) [min] | AUC0-last ([2]; 10 mg/kg) | other results
CCCN(CC)CCc1c[nH]c2ccccc12 [Compound 1, ethylpropyltryptamine] | 90.8 |  |  |  |  |  |  |  |  |  |  |  |  | EC50 (human 5-HT2C receptor): 0.0334 µM; inhibition at 10 min, 10 µM (CYP2D6): 58.6%; inhibition at 10 min, 10 µM (CYP2C19): 2.3%; inhibition at 10 min, 10 µM (CYP1A2): 37.1%
CCN(C)CCc1c[nH]c2ccccc12 [Compound 2, methylethyltryptamine] | 89.7 | 71 | 0.183 | 31.5 | > 50 | > 50 |  |  |  |  |  |  |  | inhibition at 10 min, 10 µM (CYP2D6): 11.5%; inhibition at 10 min, 10 µM (CYP2C19): 0%; inhibition at 10 min, 10 µM (CYP1A2): 0.5%
CCCN(CC)CCc1c[nH]c2ccc(F)cc12 [Compound 3, N-ethyl-N-(2-(5-fluoro-1H-indol-3-yl)ethyl) propan-1-amine hydrochloride] |  |  |  | 1.9 | > 50 | 8.4 |  |  |  |  |  |  |  | 
CCN(C)CCc1c[nH]c2ccc(F)cc12 [Compound 4, N-ethyl-2-(5-fluoro-1H-indol-3-yl)-N-methylethan-1-amine hydrochloride] | 85.13 | 71.36 | 0.00843 | > 50 | > 50 | > 50 | 499 | 237 | 60 | 2480 | 60 | 31.2 | 4,710.96 h*ng/g | AUC(0-t) ([1]; 1 mg/kg): 46.8 ng·h/mL; Cmax ([1]; 1 mg/kg): 41.3 ng/mL; Tmax ([1]; 1 mg/kg): 30 min; EC50 (human 5-HT2C receptor): 0.00946 µM; Cmax ([2]; 1 mg/kg): 188 ng/g; Tmax ([2]; 1 mg/kg): 15 min; half-life ([2]; 1 mg/kg): 23.4 min; AUC0-last ([2]; 1 mg/kg): 197.70 ng·h/g
CN(C)CCc1c[nH]c2ccc(F)cc12 [Compound 5, 2-(5-fluoro-1H-indol-3-yl)-N,N-dimethylethan-1-amine hydrochloride] |  |  |  |  |  |  | 266 | 243 | 15 | 275 | 15 | 23.4 | 93.99 ng·h/g | half-life ([1]; 10 mg/kg): 33 min
CCN(C)CCc1c[nH]c2cccc(O)c12 [Compound 6] |  |  |  | 48.5 | > 50 | > 50 | 3000 | 624 | 120 | 6160 | 120 | 125 | 30,638.13 h*ng/g | 
CN(C)CCc1c[nH]c2ccccc12 [DMT, N,N-dimethyltryptamine, reference compound] |  | 80.77 | 0.0808 |  |  |  |  |  |  |  |  |  |  | 
